Test results reported in publication PMC9863562, “Design, Synthesis, and Biological Evaluation of 2-Mercaptobenzoxazole Derivatives as Potential Multi-Kinase Inhibitors” (Pharmaceuticals, 2023).

Key:
[1] = test system: HepG2, MCF-7, MDA-MB-231 and HeLa cell lines; test: MTT cytotoxicity assay, panel of four cell lines; assay type: cell-based; details: Homo sapiens, range over HepG2, MCF-7, MDA-MB-231, HeLa, read-out: IC50 values, range over the tested cell lines
Excerpt: The in vitro cytotoxicity for the final target compounds, 4(a–d), 5(a–f), and 6(a–b), was preliminarily evaluated via the MTT colorimetric assay against a panel of four human cell lines, namely, the hepatocellular carcinoma (HepG2), mammary gland (MCF-7), breast cancer (MDA-MB-231) and epithelioid cervix carcinoma (HeLa).
The cytotoxicity of the target hybrids was examined by an MTT assay against HepG2, HeLa, MCF-7, and MDA-MB-231. At first, the RPMI-1640 medium with 10% fetal bovine serum was used to cultivate the cell lines. Then, antibiotics (penicillin (100 units/mL) and streptomycin (100 µg/mL)) were added in a 37 °C incubator in 5% CO2. The cell lines were seeded in a 96-well plate at a density of 1.0 × 10^4 cells/well at 37 °C under 5% CO2 for 48 h. After incubation, the cells were treated with various concentrations of the synthesized compounds and incubated for an additional 24 h. Following the drug treatment, 20 µL of 5 mg/mL MTT solution was added and incubated for 4 h. To dissolve the purple formazan that had formed, 100 µL dimethyl sulfoxide (DMSO) was added to each well. At a wavelength of 570 nm, the colorimetric assay was recorded and measured, using a plate reader BioTek EXL 800 (Agilent Technologies, Inc., Santa Clara, CA, USA). The percentage of relative cell viability was counted using the following formula (A570 of handled specimens/A570 of the unhandled specimen), multiplied by 100. The results of the cytotoxicity value were presented as the median growth inhibitory concentration (IC50) of the reagents compared to the control.

[2] = test system: HepG2 cells; test: Annexin V-FITC/PI dual-staining apoptosis analysis; assay type: cell-based, human; details: HepG2, 6b at 6.83 μM, 24 h
Description: To identify the mode of cell death promoted by compound 6b within the liver cancer cells (HepG2), apoptosis rate analysis was performed, following 24 h of exposure. […] Moreover, the average proportion of Annexin-V-stained positive cells (total apoptotic cells) was elevated from 2.02% within the untreated cells to 16.84% within the treated ones. […] The provided findings are supported by the previous cell cycle analysis, confirming the potentiality of 6b as a promising anticancer agent (see Table 6 and Figure 6).
Apoptosis analysis was employed to evaluate the apoptotic effect of compound 6b. […] These stained cells were evaluated using flow cytometry equipment Epics XL-MCL™ (Beckman Coulter, Apeldoorn, Netherlands) with an excitation wavelength of 488 nm and an emission wavelength of 530 nm. The results were then analyzed with the Flowing software.

[3] = test system: Bax; test: Apoptosis-related proteins in HepG2 cells (ELISA), Bax; assay type: cell-based, human
Excerpt: (§1) Compound 6b was selected to investigate the apoptotic markers against the liver cancer cell line (HepG2). […] Typically, Bax, Bcl-2, and caspases contribute to the regulation of apoptotic signaling. Acting as an apoptotic activator (Bax) or inhibitor (Bcl-2), the Bcl-2 family of proteins plays a significant role in apoptosis. The caspase family comprises cysteine proteases that are classified as either executioner—caspase-3, or as initiators—caspase-9 and caspase-8 [40]. […] Nevertheless, considerable downregulation of the anti-apoptotic gene, Bcl-2 (0.26 folds), was described, leading to an increased expression ratio of Bax/Bcl-2 (1→20.53). The Bax/Bcl-2 gene expression ratio can serve as an early predictor for cancer in patients and is a sensitive monitor of cancer progression. Collating all the provided evidence, the upregulation of caspase-3, caspase-9, and Bax is clear, while the downregulation of Bcl-2 genes makes it evident that compound 6b induces apoptosis within the liver cancer cell line (HepG2).
(§2) The HepG2 cells were incubated in 96-well plates in triplicates and left for 24 h. After 24 h of incubation, the cells were treated with compound 6b at different concentrations, while control cells were only treated with 0.1% DMSO (v/v). The treated cells, along with control cells, were then incubated for another 24 h; then, caspases-3 and 9, BAX, and Bcl-2 levels were determined using ELISA assay kits; KHO1091 (Invitrogen^TM, Grand Island, NY, USA), EIA-4860 (DRU International, Inc., Mountainside, NJ, USA), EIA-4487 (DRU International INC., Mountainside, NJ, USA) and 99–0042 (Invitrogen^TM, Grand Island, NY, USA), respectively, according to their manufacturers’ procedures.

[4] = test system: Caspase-9; test: Apoptosis-related proteins in HepG2 cells (ELISA), Caspase-9; assay type: cell-based, human
Excerpt: as §1, with “Collating all the provided evidence, the upregulation of caspase-3, caspase-9, and Bax is clear, while the downregulation of Bcl-2 genes makes it evident that compound 6b induces apoptosis within the liver cancer cell line (HepG2).” left out
as §2, with “After 24 h of incubation, the cells were treated with compound 6b at different concentrations, while control cells were only treated with 0.1% DMSO (v/v).” left out

[5] = target: T1, Human CDK2 (Homo sapiens, UniProt P24941); test: In vitro CDK2 enzyme assay (ELISA kit); assay type: biochemical
T1 construct: purchased
Description: (§3) Human CDK2, EGFR, HER2, and VEGFR-2 ELISA kits (Enzyme-Linked-Immunosorbent Serologic Assay) were used during this evaluation. At first, specified antibody proteins were added separately to a 96-well plate, then 0.1 mL of the standard solution or the evaluated molecule was added; these were then incubated for 2.5 h at RT. After rinsing, 100 μL of the ready-made biotin antibody protein was added, then incubated for one extra hour at room temperature and, finally, washed. Next, 100 μL of streptavidin solution was added, incubated at room temperature for 45 min, and then washed. Next, 100 μL of the TMB substrate reagent was added and incubated for 0.5 h at RT, followed by adding 50 μL of the stop solution. The absorbance of the ELISA plate was promptly measured at 450 nm using the ELISA plate reader.

[6] = target: T2, Human HER2 (Homo sapiens, UniProt P04626); test: In vitro HER2 enzyme assay (ELISA kit); assay type: biochemical
T2 construct: purchased
T2 sequence (P04626 23-1255): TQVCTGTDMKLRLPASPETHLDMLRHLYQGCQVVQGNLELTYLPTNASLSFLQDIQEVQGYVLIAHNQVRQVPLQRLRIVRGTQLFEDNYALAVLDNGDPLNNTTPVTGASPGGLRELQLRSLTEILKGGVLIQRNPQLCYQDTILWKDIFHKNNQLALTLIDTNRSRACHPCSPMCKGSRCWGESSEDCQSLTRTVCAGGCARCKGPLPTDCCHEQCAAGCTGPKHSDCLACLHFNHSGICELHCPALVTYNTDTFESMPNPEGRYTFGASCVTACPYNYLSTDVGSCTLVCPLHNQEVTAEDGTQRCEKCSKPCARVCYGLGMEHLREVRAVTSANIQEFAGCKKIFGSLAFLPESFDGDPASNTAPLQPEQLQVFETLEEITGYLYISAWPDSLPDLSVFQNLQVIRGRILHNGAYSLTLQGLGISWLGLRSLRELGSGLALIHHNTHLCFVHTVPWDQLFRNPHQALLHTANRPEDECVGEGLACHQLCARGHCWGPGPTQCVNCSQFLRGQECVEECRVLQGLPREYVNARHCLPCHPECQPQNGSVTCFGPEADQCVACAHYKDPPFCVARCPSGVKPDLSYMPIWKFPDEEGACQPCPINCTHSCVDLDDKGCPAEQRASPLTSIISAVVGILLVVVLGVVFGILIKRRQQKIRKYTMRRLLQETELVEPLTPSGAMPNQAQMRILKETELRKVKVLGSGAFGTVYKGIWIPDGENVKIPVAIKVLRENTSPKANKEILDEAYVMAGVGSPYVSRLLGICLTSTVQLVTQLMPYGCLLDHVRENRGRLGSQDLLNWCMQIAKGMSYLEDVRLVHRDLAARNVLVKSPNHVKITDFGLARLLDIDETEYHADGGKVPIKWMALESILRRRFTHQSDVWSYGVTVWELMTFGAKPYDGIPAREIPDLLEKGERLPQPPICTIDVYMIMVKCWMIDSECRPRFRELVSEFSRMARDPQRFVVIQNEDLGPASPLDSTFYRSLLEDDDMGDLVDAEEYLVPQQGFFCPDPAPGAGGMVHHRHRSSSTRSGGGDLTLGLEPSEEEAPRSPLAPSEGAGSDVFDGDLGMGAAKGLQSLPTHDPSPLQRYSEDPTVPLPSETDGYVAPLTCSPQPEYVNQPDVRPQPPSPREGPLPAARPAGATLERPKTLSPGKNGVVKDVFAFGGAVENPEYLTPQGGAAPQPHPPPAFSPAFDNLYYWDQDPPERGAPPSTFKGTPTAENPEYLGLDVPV
Description: as §3

[7] = test system: Caspase-3; test: Apoptosis-related proteins in HepG2 cells (ELISA), Caspase-3; assay type: cell-based, human
Excerpt: as §1, with “Collating all the provided evidence, the upregulation of caspase-3, caspase-9, and Bax is clear, while the downregulation of Bcl-2 genes makes it evident that compound 6b induces apoptosis within the liver cancer cell line (HepG2).” left out
as §2, with “After 24 h of incubation, the cells were treated with compound 6b at different concentrations, while control cells were only treated with 0.1% DMSO (v/v).” left out

[8] = target: T3, Human VEGFR-2 (Homo sapiens, UniProt P35968); test: In vitro VEGFR-2 enzyme assay (ELISA kit); assay type: biochemical; details: read-out: IC50 VEGFR2
T3 construct: purchased
T3 sequence (P35968 20-1356): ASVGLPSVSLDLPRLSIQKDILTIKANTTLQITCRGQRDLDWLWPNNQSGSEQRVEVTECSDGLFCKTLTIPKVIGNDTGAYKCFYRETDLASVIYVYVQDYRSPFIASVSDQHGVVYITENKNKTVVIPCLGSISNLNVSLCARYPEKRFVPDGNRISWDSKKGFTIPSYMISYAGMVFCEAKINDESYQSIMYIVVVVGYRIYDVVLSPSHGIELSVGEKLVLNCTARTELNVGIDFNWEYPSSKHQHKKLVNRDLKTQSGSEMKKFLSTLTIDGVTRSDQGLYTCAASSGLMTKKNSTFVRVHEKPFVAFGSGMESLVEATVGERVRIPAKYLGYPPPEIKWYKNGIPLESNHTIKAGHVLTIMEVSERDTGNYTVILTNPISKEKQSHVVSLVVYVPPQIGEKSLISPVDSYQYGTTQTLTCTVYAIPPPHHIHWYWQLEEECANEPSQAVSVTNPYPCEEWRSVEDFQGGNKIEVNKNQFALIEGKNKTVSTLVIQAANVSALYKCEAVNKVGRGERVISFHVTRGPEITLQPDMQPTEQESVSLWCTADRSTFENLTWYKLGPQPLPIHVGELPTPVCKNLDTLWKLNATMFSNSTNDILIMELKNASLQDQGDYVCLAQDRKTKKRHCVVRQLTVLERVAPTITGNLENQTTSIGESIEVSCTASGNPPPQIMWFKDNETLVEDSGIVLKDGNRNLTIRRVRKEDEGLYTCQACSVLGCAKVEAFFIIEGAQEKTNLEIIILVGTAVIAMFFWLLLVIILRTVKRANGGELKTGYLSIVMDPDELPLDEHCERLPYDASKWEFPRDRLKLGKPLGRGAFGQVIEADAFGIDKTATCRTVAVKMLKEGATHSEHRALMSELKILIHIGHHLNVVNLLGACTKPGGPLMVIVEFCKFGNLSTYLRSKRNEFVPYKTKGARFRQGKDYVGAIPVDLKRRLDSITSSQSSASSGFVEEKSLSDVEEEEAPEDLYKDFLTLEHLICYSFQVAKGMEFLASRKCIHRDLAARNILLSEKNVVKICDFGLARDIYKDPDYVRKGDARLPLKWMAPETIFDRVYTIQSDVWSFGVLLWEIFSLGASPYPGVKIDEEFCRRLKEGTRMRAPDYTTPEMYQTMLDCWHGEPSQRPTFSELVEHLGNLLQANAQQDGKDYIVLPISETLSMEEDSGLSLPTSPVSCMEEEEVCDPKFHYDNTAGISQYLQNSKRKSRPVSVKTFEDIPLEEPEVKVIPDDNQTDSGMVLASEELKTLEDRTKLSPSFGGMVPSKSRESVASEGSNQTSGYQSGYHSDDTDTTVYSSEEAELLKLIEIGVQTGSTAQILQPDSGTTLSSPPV
Description: as §3, with “Compound 6b was biologically evaluated for its inhibitory effect against CDK2, EGFR, HER2, and VEGFR-2. Human” for “Human”, “reader. The standard curve that was generated had absorbances on the Y-axis and concentrations on the X-axis.” for “reader.”

O=C(CSc1nc2ccccc2o1)NN=Cc1ccc[nH]1 (mixture of isomers) [Compound 6b, (E/Z)-N′-((1H-pyrrol-2-yl)methylene)-2-(benzo[d]oxazol-2-ylthio)acetohydrazide]
IC50 [1]: 2.14 to 19.3 µM
Early Apoptosis (Lower Right %) [2]: 1.64%
Late Apoptosis (Upper Right %) [2]: 10.91%
Total (%) apoptotic cells [2]: 16.84%
Bax Expression ([3]; 24 h treatment, ELISA): 448.4 ± 15.4 pg/mL
expression ratio of Bax/Bcl-2 ([3]; control = 1): 20.53
Bax Fold ([3]; versus control HepG2 = 1): 5.34 fold
Caspase-9 Expression ([4]; 24 h treatment, ELISA): 15.82 ± 0.51 pg/mL
Caspase-9 Fold ([4]; versus control HepG2 = 1): 3.5 fold
IC50 [5]: 886 ± 46 nM
IC50 [6]: 224 ± 13 nM
Caspase-3 Expression ([7]; 24 h treatment, ELISA): 467.6 ± 24 pg/mL
Caspase-3 Fold ([7]; versus control HepG2 = 1): 5.02 fold
IC50 [8]: 565 ± 25 nM
